The target of this assay is T1, SIRT1 (Homo sapiens, UniProt Q96EB6).
T1 sequence (Q96EB6 1-747): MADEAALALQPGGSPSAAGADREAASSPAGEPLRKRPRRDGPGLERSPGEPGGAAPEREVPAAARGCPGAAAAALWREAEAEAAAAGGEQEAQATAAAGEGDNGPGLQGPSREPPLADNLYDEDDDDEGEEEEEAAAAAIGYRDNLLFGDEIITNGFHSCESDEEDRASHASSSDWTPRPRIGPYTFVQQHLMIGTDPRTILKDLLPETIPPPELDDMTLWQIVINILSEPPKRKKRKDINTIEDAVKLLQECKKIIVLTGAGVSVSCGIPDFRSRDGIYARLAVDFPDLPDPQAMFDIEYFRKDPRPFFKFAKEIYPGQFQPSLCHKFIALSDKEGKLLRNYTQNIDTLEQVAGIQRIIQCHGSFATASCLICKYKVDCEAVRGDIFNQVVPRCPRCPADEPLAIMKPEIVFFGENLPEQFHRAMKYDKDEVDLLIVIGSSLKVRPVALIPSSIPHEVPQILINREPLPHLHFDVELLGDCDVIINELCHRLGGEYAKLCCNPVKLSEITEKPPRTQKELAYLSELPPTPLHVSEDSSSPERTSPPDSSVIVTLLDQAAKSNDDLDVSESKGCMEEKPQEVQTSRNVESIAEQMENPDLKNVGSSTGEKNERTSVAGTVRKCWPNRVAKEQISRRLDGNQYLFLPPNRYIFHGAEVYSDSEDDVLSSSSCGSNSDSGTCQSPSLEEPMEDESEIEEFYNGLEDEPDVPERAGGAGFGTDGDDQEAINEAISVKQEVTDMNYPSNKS
Kind of assay: Mass spectrometry based SIRT1 deacetylase activation assay. The assay is classed as biochemical. Particulars: for EC1.5 μM: 0.5 μM peptide substrate, 120 μM βNAD+, 10 nM SIRT1, 25 min, 25° C.; for Emax: 25 min, mass spectrometry assay, read-out: % Fold Act. (percent maximum fold activation).

A value given as a limit tells only on which side of the number the result lay.

Take `O=C(Nc1cccnc1)c1cccc2c(=O)cc(-c3cccc(C(F)(F)F)c3)oc12` [Compound 224, 4-oxo-N-(pyridin-3-yl)-2-(3-(trifluoromethyl)phenyl)-4H-chromene-8-carboxamide]: the “EC1.5 μM” value was “C (EC1.5>25 μM)” and the Emax was less than 200%.

Consider `O=C(Nc1cccc2c(=O)cc(-c3ccccc3C(F)(F)F)oc12)c1cccc(CN2CCOCC2)n1` [Compound 315], for which the “EC1.5 μM” value is “A (EC1-5<1.0)” and the Emax was more than 200%.

(Values after US8987258B2 (priority 2008, dated 2015).)
